# In patent US11129867B2, “Method of treating cancer cells” (priority 2017, dated 2021):
# Where a SMILES comes first, the peptide text is derived from it. The star is where a group is joined. X1 = CN(C)c1ccc2c(-c3ccc(C(=O)*)cc3C(=O)[O-])c3ccc(=[N+](C)C)cc-3oc2c1
# Experiments:
# [1] = tested on: Huh7; assay: WST-8 cell viability assay, Huh7; assay type: cell-based; details: Huh7 (liver cancer), different concentrations, 48 hours, FIG. 3
# Method: (§1) Human oral squamous cell carcinoma (OSCC) cell lines, Ca922, OSC20, OECM-1, OC3, CGHNC9, HSC3, plus A549, MDA-MB-231, MCF7, Huh7, HeLa-Kyoto, Detroit 562, H520, H2170, and 293T cells were used in this study. Ca922, CGHNC9, MDA-MB-231, MCF7, Huh7, HeLa-Kyoto, Detroit 562, and 293T cells were all cultured in high-glucose Dulbecco's Modified Eagle Medium (DMEM). OSC20 and HSC3 cells were cultured in Dulbecco's Modified of Eagle's Medium/Ham's F-12 50/50 Mix (1:1). OECM-1, A549, H520, and H2170 cells were grown in RPMI-1640 medium. All culture media were supplemented with 10% fetal bovine serum (FBS) and 1% penicillin-streptomycin. OC3 cells were cultured in 1:1 DMEM/KSFM (keratinocyte serum-free medium) with supplied supplement of Bovine pituitary extract (BPE) and epidermal growth factor (EGF) followed by instruction. All the cells in this study were maintained at 37° C. in humidified atmosphere containing 5% CO2.
# (§2) WST-8 [2-(2-methoxy-4-nitrophenyl)-3-(4-nitrophenyl)-5-(2,4-disulfophenyl)-2H-tetrazolium, monosodium salt] cell viability assay
# (§3) Cells were seeded into 96 well plate and incubated at 37° C. overnight. […] The amount of formazan produced is proportional to the number of live cells and is expressed as cellular viability. […] Cell viability was measured at the absorbance of 450/655 nm wavelength by ELISA reader.
# [2] = tested on: A549; assay: Time-lapse live cell imaging, A549; assay type: cell-based; details: A549, unbound TMR-GBP removed, imaged at 15 minutes interval for 16 hours, FIG. 4
# Method: Time-Lapse Live Cell Imaging
# In order to monitor cell morphology and the stability of TMR-GBP, cells were incubated in 35 mm dish or 4 well dish at 37° C. overnight. Replaced the culture medium with CO2-independent medium with supplement of 10% fetal bovine serum (FBS) and 1% penicillin-streptomycin, cells were treated with reagent (TMR, GBP, TMR-GBP) for the time according to the experiment and subjected to time-lapse live cell imaging. Cells were maintained on the microscope stage incubator at 37° C. Multiple-positional time-lapse imaging was performed using an automated Leica DMI6000 inverted microscope equipped with an HCX PL FL 20λ/NA0.4 objective and Andor Luca R EMCCD camera. Images of cells were taken at different interval time and analyzed by MetaMorph software.
# [3] = tested on: intracellular ROS in Ca922 cells; assay: DCFDA cellular ROS detection assay; assay type: cell-based, human
# Method: Ca922 cells were seeded in dark, clear bottom 96-well microplate with 25,000 cells per well. Cells were then labeled with 25 μM DCFDA for 45 minutes and 25 μM TMR-GBP for 6 hours. 1% H2O2 (1 hour) and 55 mM TBHP (4 hours) treatments were positive control, mimic ROS activity to oxidize DCFDA to fluorescent DCF. Cells were then analyzed on a fluorescent plate reader. Standard deviations of three independent experiments were indicated as bars.
# DCFDA Cellular ROS Detection Assay
# Seeded cells at 2.5×10^4 cells/well on a dark, clear bottom 96-well microplate and incubated in complete media with 10% FBS without phenol red. Prepared 1× Buffer by diluting 10× buffer in ddH2O and a working DCFDA solution (25 μM) by adding the appropriate volume of 20 mM DCFDA to 1× Buffer. Washed cells once in 1× Buffer and stained cells with 25 μM DCFDA for 45 minutes at 37° C. Then, washed cells once in 1× Buffer or 1×PBS. TMR-GBP, H2O2 and TBHP could be diluted in complete media with 10% FBS without phenol red. Added 100 μL/well of TMR-GBP, H2O2 (as positive control), TBHP (as positive control) and incubated for desired time period. Cells should not be washed after treatment with the TBHP or other compounds of interest. It should contain non-stained cells to determine background fluorescence. Read signal at Ex/Em: 485/535 nm by fluorescent plate reader
# [4] = tested on: MDA-MB-231; assay: WST-8 cell viability assay, MDA-MB-231; assay type: cell-based; details: MDA-MB-231 (breast cancer), different concentrations, 48 hours, FIG. 3
# Method: as §1, §2, §3
# [5] = tested on: mitochondria of Ca922 cells; assay: Immunofluorescence staining of TOM20 and cytochrome-c; assay type: cell-based, human; details: Ca922, different dose, 8 or 24 hours, FIG. 7
# Method: Ca922 cells were treated with different doses of TMR-GBP for 8 or 24 hours and then fixed with 4% formaldehyde. Representative images showing the staining of mitochondria marker TOM20 and cytochrome-c. Scale bar indicates 10 μm.
# Immunofluorescence Staining
# Cells grown on coverslips were washed with 1×PBS and fixed by PTEMF buffer (20 mM PIPES pH 6.8, 0.2% Triton X-100, 10 mM EGTA, 1 mM MgCl2, and 4% formaldehyde) or 4% paraformaldehyde for 10 minutes at room temperature. Then, fixation buffer was replaced with 1×PBST and the cells were washed with 1×PBST for another 10 minutes at room temperature. Coverslips were washed with 1×PBST twice gently and incubated with primary antibodies at room temperature for 1 hour. Next, washed with PBST for three times (2, 2, 5 minutes). Afterwards, coverslips were cultured in Alex Fluor-conjugated secondary antibodies and DAPI at room temperature for 30 minutes, washed three times (2, 2, 5 minutes), rinsed with ddH2O and mounted with mounting medium. Antibodies concentration used in this analysis is 1:1000 dilution. Images were acquired with specific fluorescence wavelength by Leica DMI6000 inverted microscope equipped with HCX PL FL 100λ/NA1.40 objective and EMCCD camera. All images were analyzed by MetaMorph software.
compound,measurement,setting,value
CN(C)c1ccc2c(-c3ccc(C(=O)N[C@@H](CC(N)=O)C(=O)N[C@@H](Cc4ccc(O)cc4)C(=O)N[C@@H](CCCNC(=N)N)C(=O)N[C@@H](Cc4c[nH]c5ccccc45)C(=O)N[C@@H](CCCNC(=N)N)C(=O)N[C@@H](CS)C(=O)N[C@@H](CCCCN)C(=O)N[C@@H](CC(N)=O)C(=O)N[C@@H](CCC(N)=O)C(=O)N[C@@H](CC(N)=O)C(=O)O)cc3C(=O)[O-])c3ccc(=[N+](C)C)cc-3oc2c1 [TMR-GBP] (X1-NYRWRCKNQN-OH; N-terminus and C-terminus assumed),cell viability,[1],not markedly affected
same,cell death by time-lapse microscopy,[2],still alive after long-term TMR-GBP treatment
same,increase of ROS compared with control cells,"[3]; Ca922, 25 μM, 6 hours, DCFDA, after background subtraction, FIG. 9",5 folds
same,ROS production with NAC treatment,[3]; NAC treatment in the presence of TMR-GBP,reversed by NAC treatment
same,cell viability,[4],not markedly affected
same,cytochrome-c release,[5],Cytochrome-c release upon TMR-GBP treatment was also detected
same,morphology of mitochondria (TOM20),[5],became fragmented when the concentration of TMR-GBP was increased or the treatment time was extended
